Assay results reported in US3987055A, “Azasteroids compounds and derivatives” (The Board of Regents for the Oklahoma Agricultural & …, priority 1974, dated 1976).
Values joined by “and” are separate entries in the source; they are usually repeats but may differ in a detail not shown here. Equal entries are not always repeated. Numbered stars: 1 amine (or outer) side, 2 acyl side, 3 side chain; on linkers, the order of the positions; unused ones are H or OH. Bridge positions count the residues as written; N and C are the ends. Square brackets hold non-standard residues; d marks the D form. Peptide text beside a SMILES is read from it. I, II: the chains in the order shown. Actinocin(9to1) = Cc1c2oc3c(C)ccc(C(=O)[*:1])c3nc-2c(C(=O)[*:2])c(N)c1=O; NMeV = CN[C@H](C(=O)O)C(C)C; Sar = CNCC(=O)O

Tests used:
[1] = system: rat testis tubules; experiment: lysine-U-14C incorporation into protein by rat testis tubules in vitro; assay type: cell-based; conditions: for AVERAGE OF TWO FLASK lysine incorporation: average of two flasks; for protein synthesis by teased testis tubules: in words; for lysine incorporation into protein per 100 mg / lysine incorporation into protein per flask: individual flask, 250 mg per flask (so in the source), 1 hour, 33° C
Experimental: (§1) For these investigations the compounds were diluted in a minimal amount of ethanol and further diluted in saline (0.85%) so that the final concentration was 1 mg/ml. The compounds were placed in solution and gassed under N2 and stored at 5° C until used 2 days later for the in vitro incubation studies. Details of the in vitro incubation procedures may be found in Endocrinology 89:791-800 (1971).
The effects of the compounds on the incorporation of lysine -U-^14 C into trichloroacetic (TCA) precipitable protein of rat testes was investigated by incubating about 200 mg of teased testis tubules from mature rats in a 25 ml Erlenmeyer flask containing 3 ml of Krebs Ringer bicarbonate buffer (pH 7.4), L-lysine-U-^14 C (0.5 μCi; 0.1mM), glucose (10 mM) and 0.25 ml of the azasteroid to be tested. The flasks were incubated for 1 hour at 33° C under 95% O2 : 5% CO2 and the TCA precipitable protein was isolated and an aliquot used to measure radioactivity.
CPM = counts per minute. All compounds were tested in a concentration of […]

[2] = effects on testis function: body, testis and seminal vesicle weight; assay type: in vivo, mice (ICR-Swiss adult male); conditions: average; 0.2 mg per day s.c., 10 days
Experimental: The compounds as shown in Table 7 were dissolved in a minimal amount of ethanol and diluted in sesame oil (1 mg/ml). After dilution, samples were stored at 5° C in the dark and flushed with N2 every 24 hours. The compounds were injected subcutaneously into adult male mice for a period of 10 days. Each mouse injected received a total dose of 2 mg over the 10 day period or 0.2 mg per day. The mice were random bred males of the ICR-Swiss strain and were used in the study when they reached 75±2 days of age. Mice were maintained in air-conditioned and light-controlled (14 hour light/24 hour) animal quarters and provided with lab food and water ad libitum. Animals were necropsied 24 hours after the last injection. Testes and seminal vesicles were excised, trimmed of adhering tissue and weighed fresh at the nearest one-tenth milligram.

[3] = system: rat testis tubules; experiment: glucose oxidation (glucose-U-14C) by rat testis tubules in vitro; assay type: cell-based; conditions: for AVERAGE glucose oxidation: average of flasks; for depression of glucose oxidation in vitro: in words; for GLUCOSE OXIDATION per 100 mg / GLUCOSE OXIDATION per flask: individual flask, 250 mg per flask (so in the source), 2 hours, 33° C; for % DEVIATION FROM CONTROL, glucose oxidation: versus saline, 120 min
Experimental: as §1
The effects of these compounds on glucose oxidation by testis tubules was examined by incubating about 200 mg of teased testis tubules from mature rats in a 25 ml Erlenmeyer flask containing 3 ml of Krebs Ringer bicarbonate buffer (pH 7.4), D-glucose-U-^14 C (0.5 μCi; 10mM) and 0.25 ml of the azasteroid (1 mg/ml) to be tested. The flasks were incubated for 2 hours at 33° C under 95% O2 :5% CO2. The reaction was terminated by adding 0.25 ml of 5 N H2 SO4. Carbon dioxide was trapped in 0.25 ml of hydroxide of Hyamine. The radioactivity present in the Hyamine was determined by liquid scintillation spectrometry. This table includes a detailed summary of the results obtained and an average for each compound. […] Thus, the compounds have potential for antifertility activity in the control of wild rodent populations and possibly stray animals such as dogs and cats.
CPM = counts per minute. Glucose-U-^14 C activity was 0.5 millicurie.
All compounds were tested in a concentration of 250 mg per flask.

[4] = system: sarcoma 180 ascitis cells; experiment: antitumor activity, sarcoma 180 ascites in mice, survival; assay type: in vivo, mice (Swiss albino CD-1 female); conditions: i.p., 5 injections
Experimental: The test system utilized involved Swiss albino CD-1 female mice weighing 25-27 grams which were injected (i.p.) with 1 × 10^6 viable sarcoma 180 ascitis cells. Chemotherapy was initiated 24 hours post-injection with a protocol of five intra-peritonaeal injections at 24 hour intervals.
Animals were weighted at 24 hour intervals and the survival time recorded for each test group.

[5] = system: acid phosphatase, KB and L-M cells; experiment: relative acid phosphatase staining (permeability of lysosomal membrane) of KB and L-M cells; assay type: cell-based, human (KB) and mouse (L-M); parameters: key to Relative acid phosphatase staining: light: cells showing only a few scattered granules; medium: more dense but distinct isolated granules were still detected; heavy: a more intense staining with fewer discrete granules; conditions: 20 μg/ml
Experimental: KB and L-M cells were grown on coverslips in medium 199 with 10% calf serum for the 24 hour growth prior to staining in the presence or absence of compound 5c (20 μg/ml) or compound 5d (20 μg/ml). The cells were washed in Hanks' salt solution, incubated at 37° C in Gomori's substrate solution for 1, 2, or 3 hours, washed, treated with a 1% solution of ammonium sulfide, washed, mounted and observed microscopically. Light staining was designated as cells showing only a few scattered granules; medium staining was more dense but distinct isolated granules were still detected; and heavy staining a more intense staining with fewer discrete granules. Heavy staining denotes increased phosphatase activity.
The acid phosphatase activity was measured in KB and L-M cells grown in medium in the presence or absence compound 5c or 5d (20 μg/ml) for 2 or 24 hours prior to staining (Table 2). Quantitative evaluation of the relative staining intensity of the lysosomes was compared in the treated and untreated cells. […] Thus, cells grown in the presence of compound 5c accumulate the phosphatase substrate within the lysosomes much more rapidly than the control or compound 5d treated cells indicating the compounds ability to alter membrane permeability and thus regulate the accumulation of essential metabolites. Control of this cellular capacity permits regulation of cell division so important in cancer chemotherapy. Since the permeation of the substrate is the rate-limiting step in the phosphatase determination, compound 5c produces a modification of the lysosomal membrane which increased the permeability of the lysosome to the substrate. The results also emphasize the difference in biological activity of compound 5c and 5d type molecules which chemically are similar except at C-3. Differences in the biological activity have been observed when the compounds were tested using various bacteria.

[6] = system: KB cells; experiment: relative plating efficiency of KB cells (colony formation, 7 days); assay type: cell-based, human
Experimental: The KB cells were plated in plastic tissue culture dishes and grown in a 5% CO2 gas phase incubator for 7 days. The medium was removed, the plates washed with Hanks' salt solution and the cells stained with a 0.5% aqueous crystal violet solution, rinsed and dried. The colonies were counted and the relative plating efficiency calculated using the number of control colonies as 100 percent.

[7] = system: Cells (1 × 10^5 /ml); experiment: potency after pre-incubation of compound in growth medium without cells; assay type: cell-based; conditions: 4 days
Experimental: To ascertain if the potency of compound 5d was reduced during the incubation in the growth medium in the absence of cells, compound 5d (20 μg/ml) was added to the medium and incubated at 37° C on a shaker for 4 days. Cells (1 × 10^5 /ml) were added to the "incubated" compound-containing medium. The inhibition pattern obtained from the "incubated" medium was identical to that obtained when compound 5d (20 μg/ml) was added simultaneously with the inoculation. […] Since the compounds are not inactivated by serum, their effectiveness for animal use or human tests is enhanced. This fact is stressed in animal studies recited in Example IX below.

[8] = system: KB cells; experiment: growth inhibition of human tumor KB cell line; assay type: cell-based; conditions: 10 μg/ml or greater, read-out: concentration at which growth was inhibited
Experimental: For example, growth of both the human tumor KB* and the mouse L-M** cell lines was inhibited when the cells were grown in media containing 10 μg/ml or greater

[9] = system: L-M cells; experiment: growth inhibition of mouse L-M cell line; assay type: cell-based
Experimental: Cells (1 × 10^5 /ml) were added to the "incubated" compound-containing medium.

[10] = system: B. subtilis W23; experiment: antimicrobial activity in combination with selected antibiotics; assay type: cell-based; conditions: alone; B. subtilis W23
Experimental: Several antibiotics act at the cell surface. The antimicrobial activity of the hydroxybenzindazole in combination with selected antibiotics was measured.
Both Polymyxin (Pfizer, Inc.) and Circulin (Upjohn Co.) are surface active compounds thought to cause disorganization of the cell membrane leading to a loss of intracellular components. The enhanced antimicrobial activity observed with the combination of hydroxybenzindazole and antibiotics denotes a more pronounced distortion in the cell surface. Thus, much lower concentrations of the compounds can be used in medicinal applications providing an opportunity for toxic compounds to have greater medicinal applicability and use.
Failure of the mixture of hydroxybenzindazole and chloramphenicol to show an enhanced inhibition of growth could be correlated with the internal site of action of chloramphenicol, which is blockage of the binding of the 30s and 50s ribosomal subunits.

SMILES	AVERAGE OF TWO FLASK lysine incorporation [1]	protein synthesis by teased testis tubules [1]	lysine incorporation into protein per 100 mg [1]	lysine incorporation into protein per flask [1]	Body Weight [2] [g]	Mg Testes Per g Body Wt. [2] [Mg per g]	Seminal Vesicle weight [2] [mg]	Testes Paired weight [2] [mg]	AVERAGE glucose oxidation [3]	depression of glucose oxidation in vitro [3]	GLUCOSE OXIDATION per 100 mg [3]	GLUCOSE OXIDATION per flask [3]	% DEVIATION FROM CONTROL, glucose oxidation [3]	other results
CC12CCc3cc(O)ccc3C1=NNC2=O (racemic) [Compound 4c]	1,389 CPM/100 mg tissue	depress protein synthesis	1,309 CPM/100 mg and 1,470 CPM/100 mg	2,575 CPM/FLASK and 2,925 CPM/FLASK	35.7	7.28	82.1	261.0	8,705 CPM/100 mg TISSUE	comparable to saline	8,847 CPM/100 mg and 8,564 CPM/100 mg	17,350 CPM/FLASK and 17,325 CPM/FLASK	-19.94%	
Cc1c2oc3c(C)ccc(C(=O)N[C@@H]4C(=O)N[C@H](C(C)C)C(=O)N5CCC[C@H]5C(=O)N(C)CC(=O)N(C)[C@@H](C(C)C)C(=O)O[C@@H]4C)c3nc-2c(C(=O)N[C@@H]2C(=O)N[C@H](C(C)C)C(=O)N3CCC[C@H]3C(=O)N(C)CC(=O)N(C)[C@@H](C(C)C)C(=O)O[C@@H]2C)c(N)c1=O [Actinomycin D, reference compound] (I: T[dV]P[Sar][NMeV] / II: T[dV]P[Sar][NMeV]; ester I:1-I:C, II:1-II:C; linker I:N-II:N via Actinocin(9to1))														Survival ratio T/C (survival time of test animal / control animal) ([4]; 4 μg/injection, total 20 μg): 1.9
COc1ccc2c3c(ccc2c1)C1=NCCC1(C)CC3 (stereo not shown) [Compound 5d, 1,10,11,11a-tetrahydro-7-methoxy-11a-methyl-2H-naphth[1,2-g]indole]	1,565 CPM/100 mg tissue	depress protein synthesis	1,585 CPM/100 mg and 1,546 CPM/100 mg	3,225 CPM/FLASK and 3,125 CPM/FLASK	32.3	6.32	67.7	201.6	12,140 CPM/100 mg TISSUE	depressed glucose oxidation in vitro more than compounds 4 c and 11b	16,081 CPM/100 mg and 8,200 CPM/100 mg	32,194 CPM/FLASK and 16,539 CPM/FLASK	+17.4%	Relative acid phosphatase staining ([5]; 24 h, 1 hour in substrate): none and did not stain; Relative acid phosphatase staining ([5]; 24 h, 2 hours in substrate): light; Relative acid phosphatase staining ([5]; 24 h, 3 hours in substrate): medium; staining reaction versus control ([5]; 24 h, all three substrate incubation times): identical staining reactions; staining intensity versus untreated cells ([5]; cells treated for 2 hours): indistinguishable from untreated cells; effect on the relative plating efficiency ([6]; 1 μg/ml): little effect; inhibition of growth compared with control culture ([6]; 10 and 20 μg/ml): only a very slight inhibition of growth; activity at 1 µg/mL ([6]; Homo sapiens, KB, 168 h, 1 μg/ml): 97%; activity at 10 µg/mL ([6]; Homo sapiens, KB, 168 h, 10 μg/ml): 82%; activity at 20 µg/mL ([6]; Homo sapiens, KB, 168 h, 20 μg/ml): 79%; inhibition pattern from incubated medium versus simultaneous addition ([7]; 20 μg/ml, medium pre-incubated 37° C): identical; detoxification by auto-oxidation or enzymatic (serum) processes in culture medium ([7]; 37° C): does not occur; minimal effective concentration [8]: ≥ 10 µg/mL; growth rate versus control ([9]; 1 μg/ml): same growth rate as the control; growth inhibition at 20 μg/ml ([9]; 20 μg/ml): depressed the growth rate only slightly over the rate observed with 10 μg/ml; inhibition at 10 µg/mL ([9]; Mus musculus, 96 h, 10 μg/ml, fourth day, read-out: reduction in growth as compared to the control): 30%; minimal effective concentration ([9]; Mus musculus, L-M cells, 10 μg/ml or greater, read-out: concentration at which growth was inhibited): ≥ 10 µg/mL
Oc1ccc2c3c(ccc2c1)-c1[nH]ncc1CC3 [Compound 11a, 10,11-Dihydro-3H-naphth[1,2-g]indazol-7-ol]														Survival ratio T/C (survival time of test animal / control animal) ([4]; 0.8 μg/injection, total 4 μg): 1.0
COc1ccc2c3c(ccc2c1)-c1[nH]ncc1CC3 [Compound 11b, 10,11-Dihydro-7-methoxy-3H-naphth[1,2-g]indazole]	1,155 CPM/100 mg tissue	depress protein synthesis	1,194 CPM/100 mg and 1,116 CPM/100 mg	2,325 CPM/FLASK and 2,225 CPM/FLASK	34.0	6.67	88.7	229.0	9,550 CPM/100 mg TISSUE	comparable to saline	11,590 CPM/100 mg and 7,510 CPM/100 mg	23,529 CPM/FLASK and 15,382 CPM/FLASK		
CC1(C)S[C@@H]2[C@H](NC(=O)Cc3ccccc3)C(=O)N2[C@H]1C(=O)O [penicillin, reference compound]														inhibition of growth, tested separately [10]: very slight inhibition of growth
